Source: US20240165196A1, “Beta-Lactamase Inhibitors” (VIB VZW, priority 2021, published 2024)
≈ marks a conversion by molar mass, not a printed value. Peptide text beside a SMILES is read from it.

How the values were obtained:
Assay type in all cases: cell-based
E. coli strain UZ_TEM104 [1] = settings: in presence of additive at 50 μg/mL
E. coli strain UZ_TEM104 [2] = settings: peptide alone
Excerpt: In order to generate a synthetic amyloid peptide capable of inactivating the TEM-1 beta-lactamase enzyme by capitalizing on its aggregation propensity, we applied a previously developed design pattern for synthetic aggregating sequences. This involves a tandem repeat of the APR, each instance flanked by charged amino acids for solubility and separated by a short peptide linker^19,20,23 (FIG. 2G). Previous work has shown that good bacterial uptake can be achieved using one positively charged arginine residue on the N-terminal side of each APR in the tandem and two arginine residues on the C-terminal side. This has the additional benefit of reducing the self-aggregation of the peptides and increasing their solubility prior to target engagement. As before, we employed a single Pro residue as a linker between the APRs and focused on an APR length of seven, extending shorter APRs to this length by incorporating flanking amino acids unless they were obvious aggregation breakers (Arg, Lys, Asp, Glu or Pro, see Table 1). We obtained these peptides from solid phase synthesis, followed by HPLC purification to a purity judged by reverse phase chromatography of at least 90% (Genscript).
Determination of MIC values using the broth microdilution in the 96-well plate (BD Biosciences, Belgium) according to the EUCAST guideline, which was performed in 96-well polystyrene flat bottom microtiter plates (BD Biosciences). Briefly, a single colony was inoculated into 5 mL Difco™ Mueller Hinton Broth (BD Biosciences Ref 275730) and grown to the end-exponential growth phase in a shaking incubator at 37° C. Cultures were subsequently diluted to an MacFarland (0.5 optical density) then the culture was diluted to reach 10^6 CFU/mL in fresh MHB medium. 50 μl of different concentration of peptides ranging from 128 to 2 μg/mL were serially diluted to the sterile 96-well plate in MHB. 50 μL of the diluted bacteria in MHB were pipetted into 96-well plates to reach the final volume of 100 μL. The bacteria grown with the maximum concentration of carrier and medium were considered as positive and negative controls, respectively. The plates were statically incubated overnight at 37° C. to allow bacterial growth. OD was measured at 590 nm a multipurpose ultraviolet-visible plate reader, and the absorbance of the growth bacteria was measured using absorbance reader. Bacterial growth was also visually inspected and agreed well with the OD reading.

E. coli TEM-206 = assay: antimicrobial susceptibility testing, VITEK 2 AST Cards; on Interpretation: key: S, susceptible; I, intermediate; R, resistant
Experimental: (§1) Beta-lactamase clinical samples were collected from University Hospitals Leuven and tested for ESBL production using the disk diffusion method^61. The beta-lactamase reference isolates were purchased from IHMA International Health management associates. Bacterial strains were cultivated in Mueller Hinton Broth (MHB, Difco) at 37° C. Whenever required growth media were supplemented with appropriate antibiotic to the medium or plates (kanamycin 30 μg/mL, L-arabinose 0.5 mg/mL, and IPTG 1 mM/mL). Escherichia coli BL21 (Thermo Fisher Scientific, Belgium) was used for cloning and plasmid amplification. For selection of antibiotic resistance colonies, E. coli carrying plasmids was grown in LB agar plates supplemented with the relevant antibiotic. Bacterial CFU counting was done on blood agar plates (BD Biosciences, Belgium) or MHA agar plates. Species identification and antibiograms for all clinical isolates were performed using MALDI-Tof and VITEK® 2 automated system (BioMérieux, France).

E. coli NDM ? a = assay: as above
Experimental: as §1

E. coli NDM ? b = assay: as above
Experimental: as §1

E. coli SH ? (APHA) = assay: as above
Experimental: as §1

E. coli TEM-30 = test system: E. coli TEM-30; on Interpretation: key: S, susceptible; I, intermediate; R, resistant
Experimental: as §1

E. coli TEM-104 = test system: E. coli TEM-104; on Interpretation: key: S, susceptible; I, intermediate; R, resistant
Experimental: as §1

E. coli TEM-148 = test system: E. coli TEM-148; on Interpretation: key: S, susceptible; I, intermediate; R, resistant
Experimental: as §1

E. coli TEM-1 ? = test system: E. coli TEM-1 ?
Experimental: as §1
Wherever Interpretation is given: key: S, susceptible; I, intermediate; R, resistant.

Row | Compound | MIC penicillin (E. coli strain UZ_TEM104 [1]) | MIC peptide (E. coli strain UZ_TEM104 [2]) | Interpretation (E. coli TEM-206) | MIC (E. coli TEM-206) | Interpretation (E. coli NDM ? a) | MIC (E. coli NDM ? a) | Interpretation (E. coli NDM ? b) | MIC (E. coli NDM ? b) | Interpretation (E. coli SH ? (APHA)) | MIC (E. coli SH ? (APHA)) | Interpretation (E. coli TEM-30) | MIC (E. coli TEM-30) | Interpretation (E. coli TEM-104) | MIC (E. coli TEM-104) | Interpretation (E. coli TEM-148) | MIC (E. coli TEM-148) | Interpretation (E. coli TEM-1 ?) | MIC (E. coli TEM-1 ?)
1 | Ac-RLLTLASRRPRLLTLASRR-NH2 [TEM4.0] | 1600 µg/mL | 100 µg/mL | – | – | – | – | – | – | – | – | – | – | – | – | – | – | – | –
2 | Colistin | – | – | S | ≤ 0.5 µg/mL | S | ≤ 0.5 µg/mL | S | ≤ 0.5 µg/mL | S | ≤ 0.5 µg/mL | S | ≤ 0.5 µg/mL | S | ≤ 0.5 µg/mL | S | ≤ 0.5 µg/mL | S | ≤ 0.5 µg/mL
3 | CO/N=C(\C(=O)N[C@@H]1C(=O)N2C(C(=O)O)=C(COC(C)=O)CS[C@H]12)c1csc(N)n1 [Cef ? axime] | – | – | R | ≥ 64 µg/mL | R | ≥ 64 µg/mL | R | ≥ 64 µg/mL | R | ≥ 64 µg/mL | R | 4 µg/mL (≈ 8.78 µM) | S | ≤ 1 µg/mL | R | 16 µg/mL (≈ 35.1 µM) | R | ≥ 64 µg/mL
4 | CN(C)c1cc(NC(=O)CNC(C)(C)C)c(O)c2c1C[C@H]1C[C@H]3[C@H](N(C)C)C(O)=C(C(N)=O)C(=O)[C@@]3(O)C(O)=C1C2=O [Tig ? cycline] | – | – | – | – | – | – | – | – | S | – | – | – | – | – | – | – | – | –
5 | C[C@H]1COc2c(N3CCN(C)CC3)c(F)cc3c(=O)c(C(=O)O)cn1c23 [Levofloxacin] | – | – | R | – | – | – | – | – | S | – | – | – | – | – | – | – | – | –
6 | Ac-RGIIAALGRRPRGIIAALGRR-NH2 [TEM6.0] | 1600 µg/mL | >100 µg/mL | – | – | – | – | – | – | – | – | – | – | – | – | – | – | – | –
7 | NC[C@H]1O[C@H](O[C@H]2[C@H](O)[C@@H](O[C@H]3O[C@H](CO)[C@@H](O)[C@H](N)[C@H]3O)[C@H](N)C[C@@H]2N)[C@H](N)C[C@@H]1O [Tobramycin] | – | – | S | ≤ 1 µg/mL | – | – | S | – | – | – | – | – | S | ≤ 1 µg/mL | S | ≤ 1 µg/mL | S | ≤ 1 µg/mL
8 | O=C1CN(/N=C/c2ccc([N+](=O)[O-])o2)C(=O)N1 [Nitrofuran ?] | – | – | S | – | R | 64 µg/mL (≈ 269 µM) | R | 64 µg/mL (≈ 269 µM) | S | ≤ 16 µg/mL | S | 32 µg/mL (≈ 134 µM) | S | – | S | 32 µg/mL (≈ 134 µM) | S | ≤ 16 µg/mL
9 | CO[C@@]1(NC(=O)C(C(=O)O)c2ccsc2)C(=O)N2[C@@H](C(=O)O)C(C)(C)S[C@@H]21 (some centres unmarked) [T ? cillin] | – | – | S | – | – | – | – | – | – | – | – | – | – | – | – | – | – | –
10 | CO/N=C(\C(=O)N[C@@H]1C(=O)N2C(C(=O)[O-])=C(C[N+]3(C)CCCC3)CS[C@H]12)c1csc(N)n1 [C ? ime] | – | – | R | ≥ 64 µg/mL | R | ≥ 64 µg/mL | R | ≥ 64 µg/mL | R | 16 µg/mL (≈ 33.3 µM) | – | ≤ 1 µg/mL | S | ≤ 1 µg/mL | – | 2 µg/mL (≈ 4.16 µM) | R | ≥ 64 µg/mL
11 | CC(C)(O/N=C(\C(=O)N[C@@H]1C(=O)N2C(C(=O)[O-])=C(C[n+]3ccccc3)CS[C@H]12)c1csc(N)n1)C(=O)O [C ? dime] | – | – | R | 16 µg/mL (≈ 29.3 µM) | R | ≥ 64 µg/mL | R | ≥ 64 µg/mL | R | ≥ 64 µg/mL | – | ≤ 1 µg/mL | S | ≤ 1 µg/mL | – | ≤ 1 µg/mL | R | 16 µg/mL (≈ 29.3 µM)
12 | CC(=O)N[C@@H](CCCNC(=N)N)C(=O)N[C@@H](Cc1ccccc1)C(=O)N[C@@H](Cc1ccccc1)C(=O)N[C@@H](C)C(=O)N[C@@H](C)C(=O)N[C@@H](Cc1ccccc1)C(=O)N[C@@H](CS)C(=O)N[C@@H](CC(C)C)C(=O)N[C@@H](CCCNC(=N)N)C(=O)N[C@@H](CCCNC(=N)N)C(=O)N[C@@H](CCCNC(=N)N)C(=O)N1CCC[C@H]1C(=O)N[C@@H](Cc1ccccc1)C(=O)N[C@@H](Cc1ccccc1)C(=O)N[C@@H](C)C(=O)N[C@@H](C)C(=O)N[C@@H](Cc1ccccc1)C(=O)N[C@@H](CS)C(=O)N[C@@H](CC(C)C)C(=O)N[C@@H](CCCNC(=N)N)C(=O)N[C@@H](CCCNC(=N)N)C(N)=O [TEM1.0] (Ac-RFFAAFCLRRRPFFAAFCLRR-NH2) | 1600 µg/mL | – | – | – | – | – | – | – | – | – | – | – | – | – | – | – | – | –
13 | CO[C@@]1(NC(=O)Cc2cccs2)C(=O)N2C(C(=O)O)=C(COC(N)=O)CS[C@@H]21 [C ? tin] | – | – | S | ≤ 4 µg/mL | – | – | – | – | – | – | – | – | – | – | – | – | S | –
14 | Gentamicin | – | – | S | ≤ 1 µg/mL | R | ≥ 16 µg/mL | S | ≤ 1 µg/mL | R | – | R | ≥ 16 µg/mL | S | ≤ 1 µg/mL | S | ≤ 1 µg/mL | S | ≤ 1 µg/mL
15 | Ac-RAGWFIARRPRAGWFIARR-NH2 [TEM5.0] | 1600 µg/mL | 100 µg/mL | – | – | – | – | – | – | – | – | – | – | – | – | – | – | – | –
16 | NCC[C@H](O)C(=O)N[C@@H]1C[C@H](N)[C@@H](O[C@H]2O[C@H](CN)[C@@H](O)[C@H](O)[C@H]2O)[C@H](O)[C@H]1O[C@H]1O[C@H](CO)[C@@H](O)[C@H](N)[C@H]1O [Amikacin] | – | – | S | ≤ 2 µg/mL | S | – | S | – | S | – | – | – | S | ≤ 2 µg/mL | S | ≤ 2 µg/mL | S | ≤ 2 µg/mL
17 | C[C@@H](O)[C@H]1C(=O)N2C(C(=O)O)=C(S[C@@H]3CN[C@H](C(=O)N(C)C)C3)[C@H](C)[C@H]12 [Meropen ? m] | – | – | S | ≤ 0.25 µg/mL | R | ≥ 16 µg/mL | I | 8 µg/mL (≈ 20.9 µM) | S | ≤ 0.25 µg/mL | S | ≤ 0.25 µg/mL | S | – | S | ≤ 0.25 µg/mL | S | ≤ 0.25 µg/mL
18 | CO/N=C(\C(=O)N[C@@H]1C(=O)N2C(C(=O)OC(C)OC(C)=O)=C(COC(N)=O)CS[C@H]12)c1ccco1 (some centres unmarked) | – | – | R | ≥ 64 µg/mL | R | ≥ 64 µg/mL | R | ≥ 64 µg/mL | R | – | R | ≥ 64 µg/mL | S | 4 µg/mL (≈ 7.84 µM) | R | ≥ 64 µg/mL | R | ≥ 64 µg/mL
19 | Ac-RIVVIYTTRRPRIVVIYTTRR-NH2 [TEM7.0] | 1600 µg/mL | >100 µg/mL | – | – | – | – | – | – | – | – | – | – | – | – | – | – | – | –
20 | CO/N=C(\C(=O)N[C@@H]1C(=O)N2C(C(=O)O)=C(COC(N)=O)CS[C@H]12)c1ccco1 [C ? xime] | – | – | R | ≥ 64 µg/mL | R | ≥ 64 µg/mL | R | ≥ 64 µg/mL | R | – | R | ≥ 64 µg/mL | S | 4 µg/mL (≈ 9.43 µM) | R | ≥ 64 µg/mL | R | ≥ 64 µg/mL
